Experimental data from patent publication US5627171A, “Sphingosine-1-phosphate/trimethylsphingosine composition” (Oncomembrane, Inc., priority 1994, dated 1997).
Read-outs that look alike come from different tables or passages of the source.

Legend:
protein kinase C = test system: protein kinase C; set-up: key: +++: + graded effectiveness; ++: + graded effectiveness; + graded effectiveness; - not effective; details: cited from earlier work
B16BL6 melanoma cells = test system: B16BL6 melanoma cells; set-up: key: +++: + graded effectiveness; ++: + graded effectiveness; + graded effectiveness; - not effective; details: cited from earlier work
platelet activation = test system: platelet activation; set-up: key: +++: + graded effectiveness; ++: + graded effectiveness; + graded effectiveness; - not effective; details: cited from earlier work
BL6 cell line = experiment: Spontaneous metastasis model: subcutaneous BL6 cells, lung colonization; type: in vivo; details: mice, BL6 cells s.c.; liposomes i.v. on days 5, 10, 15, 20, 25, 30; primary tumor excised day 21; assessed day 35
Experimental: As an example, mice were injected subcutaneously with the metastatic and invasive BL6 cell line (Hart et al., Amer. J. Path., 97, 587, 1979; Poote et al., Canc. Res., 42, 2770, 1982) (1×10^5 cells in 0.05 ml of Dulbecco-modified Eagle's medium). A single intravenous injection of the 10:1 liposomal TMS/Sph-1-P composition described hereinabove was administered on days 5, 10, 15, 20, 25 and 30. The primary tumor was excised on day 21 and lung colonization was assessed on day 35. […] Controls comprised liposomes containing TMS alone, liposomes containing Sph-1-P alone, liposomes containing medium or medium alone with no liposomes.
Then the instant composition encapsulated in liposomes is administered to the hosts, see FIG. 9A.
(§1) In either model, the number of lung tumor colonies is ascertained macroscopically and microscopically following a course of repeated liposome administration.

tumor cells = experiment: Experimental metastasis model: intravenous injection of tumor cells, lung tumor colonies; type: in vivo; details: tumor cells i.v.; number of lung tumor colonies
Excerpt: as §1

[1] = preincubation with free derivative

SMILES | PKC inhibition (protein kinase C) | Inhibition of metastasis (B16BL6 melanoma cells; no footnote on formulation) | Inhibition of PA (platelet activation) | Inhibition of metastasis (B16BL6 melanoma cells; [1]) | Inhibition of metastasis (B16BL6 melanoma cells; liposomal formulation was used) | Lung colony number (lung colonization) (BL6 cell line) | Inhibition of metastasis (B16BL6 melanoma cells; free derivative and liposomal formulation were used) | Effect in the experimental metastasis model (tumor cells)
CCCCCCCCCCCCCC#C[C@@H](O)[C@H](CO)[N+](C)(C)C [4-alkyn-TMS] | +++ | + | ++ |  |  |  |  | 
CCCCCCCCCCCCCC(F)/C=C/[C@H](CO)[N+](C)(C)C (some centres unmarked) [5F-TMS] | +++ | +++ | +++ |  |  |  |  | 
C[N+](C)(C)[C@@H](CO)[C@H](O)/C=C/CCCCCCCCCCCCC(=O)O [Carboxy TMS] | - |  | - | - |  |  |  | 
CCCCCCCCCCCCCCC[C@@H](O)[C@H](CO)[N+](C)(C)C [DHTMS] | +++ |  | ++ |  | + |  |  | 
COC(=O)CCCCCCCCCCCC/C=C/[C@@H](O)[C@H](CO)[N+](C)(C)C [Methylcarboxy TMS] | - |  | - | - |  |  |  | 
C[N+](C)(C)[C@@H](CO)[C@H](O)c1ccccc1 [NTPS] | - |  | - | - |  |  |  | 
CCCCCCCCCCCCC/C=C/[C@@H](O)[C@@H](N)COP(=O)(O)O [Sph-1-P, sphingosine-1-phosphate] |  |  |  |  |  | no different in effect from medium alone or liposomes containing medium only |  | 
CCCCCCCCCCCCC/C=C/[C@@H](O)[C@H](CO)[N+](C)(C)C [TMS, N,N,N-trimethylsphingosine] | +++ |  | +++ |  |  |  | +++ | strong effect
